According to US12600732B2, “Bifunctional compounds for degrading BTK via ubiquitin proteosome pathway” (NURIX THERAPEUTICS, INC., priority 2019, dated 2026):
Read-outs that look alike come from different tables or passages of the source. Values belong to the compound of their own block, whether it stands above or below them.

Tests used:
BTK = target: T1, BTK (Mus musculus, UniProt P35991); assay: In vivo degradation of BTK in mouse PD experiments with oral dosing; settings: oral dose 30 mg/kg, 24 h
T1 construct: from tissue; host or cells: mouse blood B cells / splenocytes (CD-1 or BALB/c)
Outline: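 CD-1 or BALB/c mice dosed by oral gavage, screens at 90 mg/kg for 6 h, later at lower doses/longer times. Blood or splenocyte BTK measured by intracellular flow cytometry (or HTRF); % degradation from B-cell minus T-cell BTK geometric MFI, relative to vehicle.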

TMD8 cells = assay: Cell viability assay (CellTiter-Glo), TMD8 cells; settings: for EC50: Homo sapiens, TMD8, 72 h; for EMAX (% viable cells): TMD8 cells, treatment time 72 h
Protocol: (§4) Cell viability was determined using CellTiter-Glo 2.0 Luminescent Cell Viability Assay (Promega, G9242), which quantitates the amount of ATP present as a proxy for the number of viable cells in culture. Cells were plated with densities between 2000-4000 cells per well in 96-well plates. […] CellTiter-Glo reagent was added to cells at a dilution of 1:20, and the plate was incubated ten minutes at room temperature prior to reading the luminescence signal using an EnVision plate reader. Controls included cells treated with DMSO and wells that contained no cells, only media. Background luminescence signal was determined by control wells containing no cells, only media, and was then subtracted from all sample wells. Luminescence values were then normalized to DMSO-treated wells and reported at proportion viable cells.
Here, the ability of CTMs to affect viability in BTK-dependent cell lines was assessed.

TMD8 C481S cells = assay: Cell viability assay (CellTiter-Glo), TMD8 C481S cells; settings: for EC50: Homo sapiens, TMD8, 72 h; for EMAX (% viable cells): TMD8 C481S cells, treatment time 72 h
Protocol: as §4

BTK C481S = BTK C481S (Homo sapiens, UniProt Q06187, C481S); assay: BTK degradation (Total BTK HTRF) in TMD8 cells expressing BTK-C481S; format: cell-based; parameters: endogenous in cells; host or cells: TMD8 BTK-C481S (clone2C3), Cas9 RNP knock-in; settings: TMD8 BTK-C481S (clone2C3) cells, treatment time 4 h
Protocol: BTK levels were determined using Cisbio Total-BTK HTRF (Homologous Time-Resolved Fluorescence) kit (63ADK064PEG) according to the manufacturer's protocol. Briefly, cells were incubated in 1× supplied lysis buffer for 30 minutes. In an opaque white low volume 96-well plate (Cisbio, 66PL96005), cell lysate was combined with two different specific BTK antibodies, one conjugated with Eu^3+-Cryptate FRET donor and one conjugated with d2 FRET acceptor. Assay controls include wells containing cell lysate with only the Eu^3+-Cryptate FRET donor antibody and wells containing both HTRF antibodies and lysis buffer without cells or control lysate provided by Cisbio. HTRF ratio was calculated as (acceptor signal at 665 nm/donor signal at 620 nm)×10^4. Background HTRF levels were determined from the control well containing the donor, but no acceptor, antibody. Background HTRF levels were subtracted from all samples. Readouts were reported as HTRF levels relative to HTRF levels of DMSO-treated cells. Four-parameter non-linear regressions were performed in GraphPad Prism 7.02 to obtain DC50 values.
BTK Degradation (Total BTK HTRF) at Four Hours in TMD8 Cells Expressing BTK-C481S
This example evaluates the potency of CTM in degrading […]. The BTK binding moieties utilized in CTMs bind to the BTK active site. This example evaluates whether the active site mutation C481S affects CTM-induced degradation of BTK.

[1] = test system: B cell receptor (BCR) signaling; assay: B cell activation assay (flow cytometry), mouse B cells; format: cell-based; settings: treatment 4 h, IgM stimulation 18 h
Protocol: Compound was present throughout the stimulation. Cells were stained with Live/Dead dye (Fisher L34976) and then fluorophore-conjugated antibodies against CD20 (Biolegend 302330), CD3 (BD Pharmingen 557705), CD86 (Biolegend 305416) and CD69 (Biolegend 310906). Stained cells were fixed in PFA and run on an Attune N×T Acoustic Focusing Flow Cytometer (Thermo-Fisher A29004), and data was analyzed using FlowJo (v10.5.3) and GraphPad Prism (v7.00) software. Single live lymphocytes were gated for B cells (CD20+CD3−) and T cells (CD3+CD20−), and the geometric mean fluorescence intensity (MFI) of CD86 and CD69 was calculated for each population. The MFI of the unstimulated sample was used to quantify baseline activation.
This example evaluates whether CTM treatment affects B cell receptor (BCR) signaling. BTK is activated downstream of the B cell receptor and leads to upregulation of activation markers CD86 and CD69 on the surface of B cells.

[2] = PK data for BTK CTMs (in vivo plasma concentrations); settings: Mouse Balb/c
Text: The present example evaluates in vivo plasma concentrations of BTK CTMs to develop PK-PD-efficacy relationship and predict human exposure.

Aiolos = target: T2, Aiolos (Homo sapiens, UniProt Q96SW2+Q9UKT9); assay: Aiolos degradation in Mantle Cell Lymphoma lines (flow cytometry); format: cell-based; settings: treatment time 24 h
T2 construct: endogenous in cells; host or cells: Mino, Rec-1
Text: (§1) Ikaros and Aiolos Degradation in Mantle Cell Lymphoma Lines (Ikaros and Aiolos Flow Cytometry)
(§2) This example evaluates the IMiD activity of CTMs in cellular models of Mantle Cell Lymphoma (MCL). […] These assays are to determine potency of CTMs for degrading IMiD neo-substrates in cellular models of MCL and to generate data to inform efficacy studies in MCL xenografts.

Ikaros = target: T3, Ikaros (Homo sapiens, UniProt Q13422+Q96SW2); assay: Ikaros degradation in Mantle Cell Lymphoma lines (flow cytometry); format: cell-based; settings: treatment time 24 h
T3 construct: endogenous in cells; host or cells: Mino, Rec-1
Text: as §1, §2

primary human T cells [3] = assay: T cell activation assay, IL-2 secretion (ELISA); format: cell-based
Protocol: (§3) This example evaluates whether CTMs with IMiD activity affect T cell activation. […] These assays were performed to assess whether BTK CTMs with and without IMiD activity affected activation of primary human T cells after stimulation of the T cell receptor with anti-CD3/ati-CD28 stimulation. T cell activation was measured by IL-2 secretion (ELISA assay) and upregulation of activation markers CD25 and CD69 on the surface of T cells (flow cytometry). Data are presented as the fold-change of response relative to baseline (stimulation with anti-CD3/anti-CD28 stimulation in the absence of compound).

primary human T cells [4] = assay: T cell activation assay, CD25 and CD69 staining (flow cytometry); format: cell-based; settings: for CD25 Staining Anti-CD3/Anti-CD28 Stimulation / CD69 Staining Anti-CD3/Anti-CD28 Stimulation: fold-change of response relative to baseline
Protocol: as §3

Structure (SMILES): NC(=O)c1ncc(N2CCCCC2)nc1Nc1ccc(C2CCN(CC3CCN(c4ccc(C(=O)NC5CCC(=O)NC5=O)nc4)CC3)CC2)cc1 (stereo not drawn) [Compound 182]
% BTK Remaining (BTK; splenocytes, HTRF): 12% | DC50 (BTK C481S): 14.5 nM

Structure (SMILES): CN1CCN([C@@H]2CCCN(c3cnc(C(N)=O)c(Nc4ccc(C5(C)CCN(C[C@H]6CCN(c7ccc8c(c7)C(=O)N(C7CCC(=O)NC7=O)C8=O)C6)CC5)cc4)n3)C2)C1=O (stereo partly drawn) [Compound 71]
EC50 ([1]; read-out: CD69 EC50): 1 nM | EC50 ([1]; read-out: CD86 EC50): 2 nM | % BTK Remaining (BTK; splenocytes, HTRF): 27%

Structure (SMILES): CN1CCN([C@@H]2CCCN(c3cnc(C(N)=O)c(Nc4ccc(C5CCN(CC6CCN(c7ccc(NC8CCC(=O)NC8=O)nc7)CC6)CC5)cc4)n3)C2)C1=O (stereo partly drawn) [Compound 166]
% BTK Remaining (BTK; splenocytes, HTRF): 19% | DC50 (BTK C481S): 8.1 nM

Structure (SMILES): CN1CCN([C@@H]2CCCN(c3cnc(C(N)=O)c(Nc4ccc(C5CCN(C(=O)CCOCCNc6cccc7c6C(=O)N(C6CCC(=O)NC6=O)C7=O)CC5)cc4)n3)C2)C1=O (stereo partly drawn) [Compound 25]
DC50 (Aiolos; Mino cells): 10 nM | DC50 (Aiolos; Rec-1 cells): 31 nM | DC50 (Ikaros; Mino cells): 29 nM | DC50 (Ikaros; Rec-1 cells): 63 nM | IL-2 Secretion Anti-CD3/Anti-CD28 Stimulation (primary human T cells [3]; 1.4 nM, fold-change of response relative to baseline): 2.42 | IL-2 Secretion Anti-CD3/Anti-CD28 Stimulation (primary human T cells [3]; 37 nM, fold-change of response relative to baseline): 3.35 | IL-2 Secretion Anti-CD3/Anti-CD28 Stimulation (primary human T cells [3]; 333 nM, fold-change of response relative to baseline (stimulation without compound)): 3.86 | IL-2 secretion compared to baseline (anti-CD3/anti-CD28 stimulation alone) (primary human T cells [3]; primary human T cells): increased IL-2 secretion but not to the level observed with IMiDs | CD25 Staining Anti-CD3/Anti-CD28 Stimulation (primary human T cells [4]; 1.4 nM): 1.25 | CD69 Staining Anti-CD3/Anti-CD28 Stimulation (primary human T cells [4]; 1.4 nM): 1.18 | CD25 Staining Anti-CD3/Anti-CD28 Stimulation (primary human T cells [4]; 37 nM): 1.30 | CD69 Staining Anti-CD3/Anti-CD28 Stimulation (primary human T cells [4]; 37 nM): 1.33 | CD25 Staining Anti-CD3/Anti-CD28 Stimulation (primary human T cells [4]; 333 nM): 1.39 | CD69 Staining Anti-CD3/Anti-CD28 Stimulation (primary human T cells [4]; 333 nM): 1.39 | expression of CD25 and CD69 compared to baseline (anti-CD3/anti-CD28 stimulation alone) (primary human T cells [4]; primary human T cells): unchanged or decreased levels

More lines, main results first:

% BTK Remaining (BTK; blood, flow cytometry): 16% | DC50 (BTK C481S): 5.3 nM
Structure (SMILES): CN1CCN([C@H]2CCCN(c3cnc(C(N)=O)c(Nc4ccc(C5CCN(CC6CCN(c7ccc(NC8CCC(=O)NC8=O)cn7)CC6)CC5)cc4)n3)C2)C1=O (stereo partly drawn) [Compound 129]
EC50 (TMD8 cells): 3.17 nM | EMAX (% viable cells) (TMD8 cells): 16% | EC50 (TMD8 C481S cells): 4.36 nM | EMAX (% viable cells) (TMD8 C481S cells): 14%

EC50 ([1]; read-out: CD69 EC50): ~0.2 nM | EC50 ([1]; read-out: CD86 EC50): 0.2 nM | % BTK Remaining (BTK; splenocytes, HTRF): 26% | AUC ([2]; 1 mg/kg IV): 0.6 µM·h | clearance ([2]; 1 mg/kg IV): 33.8 mL/min/kg | Vd ([2]; 1 mg/kg IV, read-out: Volume of Distribution): 3.4 L/kg | AUC ([2]; 10 mg/kg PO): 2.9 µM·h | bioavailability ([2]; 10 mg/kg PO): 47% | DC50 (BTK C481S): 1.2 nM
Structure (SMILES): NC(=O)c1ncc(N2CCC[C@@H](N3CCOC3=O)C2)nc1Nc1ccc(C2CCN(C[C@H]3CCN(c4ccc5c(c4)C(=O)N(C4CCC(=O)NC4=O)C5=O)C3)CC2)cc1 (stereo partly drawn) [Compound 73]
EC50 (TMD8 cells): 0.004 nM | EMAX (% viable cells) (TMD8 cells): 25% | EC50 (TMD8 C481S cells): 0.054 nM | EMAX (% viable cells) (TMD8 C481S cells): 19%

DC50 (BTK C481S): 0.4 nM
Structure (SMILES): CN1CCN([C@@H]2CCCN(c3cnc(C(N)=O)c(Nc4ccc(C5CCN(CC6CCN(c7ccc8c(c7)n(C)c(=O)n8C7CCC(=O)NC7=O)CC6)CC5)cc4)n3)C2)C1=O (stereo partly drawn) [Compound 156]
